± gives the standard deviation of the averaged measurements.
Experiments:
Test in all cases: level (log10 ratio to DMSO vehicle control); higher = higher biomarker level / cell amount than vehicle control
[1] = compound: CO[Si](C)(CCC(F)(F)C(F)(F)C(F)(F)C(F)(F)C(F)(F)C(F)(F)F)OC [Dimethoxymethyl((perfluorohexyl)ethyl)silane] (in DMSO)
Method in brief: (§1)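 Cytokine or activator stimulation followed a 1 h exposure of BioMAP Diversity Plus human primary cell co-cultures to test substances, with one well per endpoint and final DMSO under 0.1%. Incubation then ran 24 h, or 48 h for MyoF and 72 h for BT, or 6 d for secreted IgG. After ELISA, sulforhodamine B and Alamar Blue readouts, each well was divided by the mean of 8 same-plate DMSO wells, log10 transformed, and blinded duplicates were averaged.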

[2] = compound: NS(=O)(=O)C(F)(F)C(F)(F)C(F)(F)C(F)(F)C(F)(F)C(F)(F)C(F)(F)C(F)(F)F [Perfluorooctanesulfonamide] (in DMSO)
Method in brief: as §1

[3] = compound: O=C(O)C(F)(F)C(F)(F)C(F)(F)C(F)(F)C(F)(F)C(F)(F)C(F)(F)C(F)(F)C(F)(F)C(F)(F)F [Perfluoroundecanoic acid] (in DMSO); conditions: 6700 nM
Method in brief: as §1

[4] = compound: O=C(O)C(F)(F)C(F)(F)C(F)(F)OC(F)(F)F [Perfluoro(4-methoxybutanoic) acid] (in DMSO)
Method in brief: as §1

[5] = compound: O=C(O)C=C(C(F)(F)F)C(F)(F)F [3,3-Bis(trifluoromethyl)-2-propenoic acid] (in DMSO)
Method in brief: as §1

[6] = compound: O=S(=O)(O)C(F)(F)C(F)(F)C(F)(F)C(F)(F)C(F)(F)C(F)(F)C(F)(F)F [Perfluoroheptanesulfonic acid] (in DMSO)
Method in brief: as §1

[7] = compound: O=S(=O)(O)CCC(F)(F)C(F)(F)C(F)(F)C(F)(F)C(F)(F)C(F)(F)C(F)(F)C(F)(F)F [8:2 Fluorotelomer sulfonic acid] (in DMSO)
Method in brief: as §1

| Test System | level (log10) ([1]; 6700 nM) | level (log10) ([1]; 20000 nM) | level (log10) ([2]; 6700 nM) | level (log10) ([2]; 20000 nM) | level (log10) [3] | level (log10) ([4]; 6700 nM) | level (log10) ([4]; 20000 nM) | level (log10) ([4]; 60000 nM) | level (log10) ([5]; 6700 nM) | level (log10) ([5]; 20000 nM) | level (log10) ([5]; 60000 nM) | level (log10) ([6]; 1500 nM) | level (log10) ([6]; 4400 nM) | level (log10) ([6]; 13000 nM) | level (log10) ([6]; 40000 nM) | level (log10) ([7]; 6700 nM) | level (log10) ([7]; 20000 nM) | level (log10) ([7]; 60000 nM) |
| --- | --- | --- | --- | --- | --- | --- | --- | --- | --- | --- | --- | --- | --- | --- | --- | --- | --- | --- |
| KF3CT:SRB | -0.0045 ± 0.0064 | -0.004 ± 0.0028 | -0.0035 ± 0.015 | -0.0455 ± 0.029 | -0.0105 ± 0.0021 | -0.004 ± 0.0014 | 0.0015 ± 0.0021 | -0.0015 ± 0.0064 | -0.0015 ± 0.0021 | 0.003 | 0.024 ± 0.0071 | 0.0015 ± 0.005 | -0.0015 ± 0.0064 | -0.0005 ± 0.00071 | -0.0005 ± 0.005 | -0.008 ± 0.0014 | -0.0145 ± 0.0021 | -0.004 ± 0.0071 |
| HDF3CGF:CXCL11/I-TAC | -0.026 | -0.035 ± 0.014 | -0.111 ± 0.013 | -0.492 ± 0.028 | -0.062 ± 0.024 | -0.0035 ± 0.005 | 0.0045 ± 0.0078 | -0.0075 ± 0.0035 | -0.038 ± 0.011 | -0.0555 ± 0.035 | -0.033 ± 0.054 | -0.042 ± 0.054 | -0.001 ± 0.0099 | -0.035 ± 0.018 | -0.0525 ± 0.035 | -0.053 ± 0.027 | -0.0285 ± 0.03 | -0.0865 ± 0.067 |
| 3C:CD54/ICAM-1 | -0.008 ± 0.0085 | 0.0265 ± 0.016 | -0.0005 ± 0.005 | 0.002 ± 0.011 | -0.009 ± 0.0042 | -0.0205 ± 0.011 | -0.0275 ± 0.00071 | -0.029 ± 0.0014 | -0.002 ± 0.0071 | -0.018 ± 0.0071 | -0.0095 ± 0.018 | 0.0085 ± 0.005 | -0.003 ± 0.0042 | -0.001 ± 0.013 | -0.0015 ± 0.0021 | -0.008 ± 0.0099 | 0.003 ± 0.013 | 0.034 ± 0.0042 |
| MyoF:CXCL8/IL-8 | -0.016 ± 0.0014 | 0.0085 ± 0.036 | -0.04 ± 0.031 | -0.013 ± 0.0085 | 0.0245 ± 0.0092 | -0.0145 ± 0.018 | -0.004 ± 0.0042 | 0.01 ± 0.0028 | 0.0915 ± 0.00071 | 0.107 ± 0.015 | 0.154 ± 0.016 | 0.0195 ± 0.011 | 0.022 ± 0.011 | 0.026 | 0.032 ± 0.023 | -0.0085 ± 0.03 | -0.0885 ± 0.046 | -0.157 ± 0.016 |
| CASM3C:CXCL9/MIG | -0.012 ± 0.017 | -0.003 ± 0.013 | -0.0005 ± 0.011 | -0.0305 ± 0.022 | -0.027 ± 0.0099 | -0.0025 ± 0.016 | -0.0105 ± 0.0078 | 0.015 ± 0.0028 | -0.059 ± 0.051 | -0.0845 ± 0.022 | -0.0965 ± 0.087 | 0.012 ± 0.035 | -0.008 ± 0.0099 | 0.0015 ± 0.005 | 0.037 ± 0.05 | -0.03 ± 0.02 | -0.032 ± 0.0071 | 0 ± 0.021 |
| CASM3C:CD87/uPAR | 0.007 ± 0.011 | -0.0045 ± 0.026 | -0.007 ± 0.031 | -0.0055 ± 0.026 | -0.0285 ± 0.0078 | -0.0135 ± 0.04 | -0.0095 ± 0.0092 | -0.0255 ± 0.016 | -0.0235 ± 0.023 | -0.029 ± 0.031 | -0.031 ± 0.023 | -0.028 ± 0.042 | 0.0045 ± 0.049 | -0.0165 ± 0.049 | -0.0555 ± 0.035 | 0.025 ± 0.0099 | 0.022 ± 0.0014 | -0.0055 ± 0.016 |
| 3C:CD106/VCAM-1 | -0.0115 ± 0.035 | -0.009 ± 0.024 | -0.0005 ± 0.012 | 0.003 ± 0.013 | -0.001 ± 0.044 | -0.007 ± 0.0071 | -0.0145 ± 0.035 | -0.0265 ± 0.0078 | -0.0575 ± 0.03 | -0.0805 ± 0.025 | -0.157 ± 0.017 | 0.001 ± 0.0042 | -0.011 ± 0.0014 | -0.016 ± 0.0028 | -0.0185 ± 0.00071 | 0.002 ± 0.0014 | 0.009 ± 0.0028 | 0.019 ± 0.016 |
| CASM3C:Proliferation | 0.0455 ± 0.0078 | 0.041 ± 0.061 | -0.027 ± 0.0085 | 0.0415 ± 0.032 | 0.0285 ± 0.011 | 0.0025 ± 0.076 | -0.051 ± 0.047 | -0.0245 ± 0.069 | -0.0475 ± 0.0035 | -0.0555 ± 0.015 | -0.177 ± 0.06 | 0.0285 ± 0.0092 | -0.026 | -0.028 ± 0.016 | -0.034 ± 0.028 | 0.005 ± 0.072 | 0.0065 ± 0.022 | 0.0245 ± 0.023 |
| CASM3C:PAI-I | -0.0125 ± 0.022 | -0.0005 ± 0.011 | 0.012 ± 0.0057 | 0.0055 ± 0.011 | 0.005 ± 0.0057 | -0.0015 ± 0.0021 | 0.0005 ± 0.0035 | 0.0095 ± 0.0064 | -0.0115 ± 0.012 | -0.019 ± 0.0057 | -0.0145 ± 0.012 | 0.006 ± 0.0057 | 0.0075 ± 0.0064 | 0.009 ± 0.0042 | 0.008 ± 0.0042 | -0.0015 ± 0.019 | 0.012 ± 0.018 | 0.0095 ± 0.012 |
